Assay results reported in ChEMBL document CHEMBL2331362, “Identification of N-acyl 4-(5-pyrimidine-2,4-dionyl)phenylalanine derivatives and their orally active prodrug esters as dual-acting alpha4-beta1 and alpha4-beta7 receptor antagonists” (Bioorg Med Chem Lett, 2013).
Activity calls are given as the source filed them. The calls are words filed in the database; no cut-off is given here.

Legend:
[1] = Apparent permeability across human Caco2 cells; assay type: ADME, cell-based; conditions: Caco-2
[2] = Oral bioavailability in rat; assay type: ADME, organism-based; conditions: in vivo
[3] = Distribution coefficient, log D of the compound; assay type: physicochemical; conditions: octanol/water
[4] = tested on: Cynomolgus monkey; assay: Antiinflammatory activity in atopic cynomolgus monkey challenged with aerosolized Ascaris suum extract assessed as reduction in neutrophils influx into lungs at 1 and 30 mg/kg, po administered 4 hrs before antigen challenge measured 48 hrs after antigen challenge; assay type: functional, organism-based; set-up: dose 30 mg/kg; conditions: Macaca fascicularis
[5] = tested on: Cynomolgus monkey; assay: Antiinflammatory activity in atopic cynomolgus monkey challenged with aerosolized Ascaris suum extract assessed as reduction in lymphocytes influx into lungs at 1 and 30 mg/kg, po administered 4 hrs before antigen challenge measured 48 hrs after antigen challenge; assay type: functional, organism-based; set-up: dose 30 mg/kg; conditions: Macaca fascicularis
[6] = tested on: Cynomolgus monkey; assay: Antiinflammatory activity in atopic cynomolgus monkey challenged with aerosolized Ascaris suum extract assessed as reduction in eosinophils influx into lungs at 1 and 30 mg/kg, po administered 4 hrs before antigen challenge measured 48 hrs after antigen challenge; assay type: functional, organism-based; set-up: dose 30 mg/kg; conditions: Macaca fascicularis
[7] = tested on: Cynomolgus monkey; assay: Oral bioavailability in cynomolgus monkey assessed as (S)-2-(2,6-difluorobenzamido)-3-(4-(1,3,6-trimethyl-2,4-dioxo-1,2,3,4-tetrahydropyrimidin-5-yl)phenyl)propanoic acid level at 30 mg/kg; assay type: ADME, organism-based, Macaca fascicularis; conditions: in vivo
[8] = tested on: Canis familiaris; assay: Oral bioavailability in dog assessed as (S)-2-(2,6-difluorobenzamido)-3-(4-(1,3,6-trimethyl-2,4-dioxo-1,2,3,4-tetrahydropyrimidin-5-yl)phenyl)propanoic acid level at 50 mg/kg; assay type: ADME, organism-based, Canis lupus familiaris; conditions: in vivo
[9] = tested on: Rattus norvegicus; assay: Oral bioavailability in rat assessed as (S)-2-(2,6-difluorobenzamido)-3-(4-(1,3,6-trimethyl-2,4-dioxo-1,2,3,4-tetrahydropyrimidin-5-yl)phenyl)propanoic acid level at 50 mg/kg; assay type: ADME, organism-based; conditions: in vivo
[10] = tested on: Mus musculus; assay: Oral bioavailability in mouse assessed as (S)-2-(2,6-difluorobenzamido)-3-(4-(1,3,6-trimethyl-2,4-dioxo-1,2,3,4-tetrahydropyrimidin-5-yl)phenyl)propanoic acid level at 50 mg/kg; assay type: ADME, organism-based; conditions: in vivo
[11] = tested on: Cynomolgus monkey; assay: AUC (0 to 24 hrs) in cynomolgus monkey assessed as (S)-2-(2,6-difluorobenzamido)-3-(4-(1,3,6-trimethyl-2,4-dioxo-1,2,3,4-tetrahydropyrimidin-5-yl)phenyl)propanoic acid level at 30 mg/kg, po; assay type: ADME, organism-based, Macaca fascicularis, Plasma; set-up: time < 24 hr, dose 30 mg/kg, route oral; conditions: in vivo
[12] = tested on: Canis familiaris; assay: AUC (0 to 24 hrs) in dog assessed as (S)-2-(2,6-difluorobenzamido)-3-(4-(1,3,6-trimethyl-2,4-dioxo-1,2,3,4-tetrahydropyrimidin-5-yl)phenyl)propanoic acid level at 50 mg/kg, po; assay type: ADME, organism-based, Canis lupus familiaris, Plasma; set-up: time < 24 hr, dose 50 mg/kg, route oral; conditions: in vivo
[13] = tested on: Rattus norvegicus; assay: AUC (0 to 24 hrs) in rat assessed as (S)-2-(2,6-difluorobenzamido)-3-(4-(1,3,6-trimethyl-2,4-dioxo-1,2,3,4-tetrahydropyrimidin-5-yl)phenyl)propanoic acid level at 50 mg/kg, po; assay type: ADME, organism-based, Plasma; set-up: time < 24 hr, dose 50 mg/kg, route oral; conditions: in vivo
[14] = tested on: Mus musculus; assay: AUC (0 to 24 hrs) in mouse assessed as (S)-2-(2,6-difluorobenzamido)-3-(4-(1,3,6-trimethyl-2,4-dioxo-1,2,3,4-tetrahydropyrimidin-5-yl)phenyl)propanoic acid level at 50 mg/kg, po; assay type: ADME, organism-based, Plasma; set-up: time < 24 hr, dose 50 mg/kg, route oral; conditions: in vivo
[15] = tested on: Cynomolgus monkey; assay: Cmax in cynomolgus monkey assessed as (S)-2-(2,6-difluorobenzamido)-3-(4-(1,3,6-trimethyl-2,4-dioxo-1,2,3,4-tetrahydropyrimidin-5-yl)phenyl)propanoic acid level at 30 mg/kg, po; assay type: ADME, organism-based, Macaca fascicularis; set-up: dose 30 mg/kg, route oral; conditions: in vivo
[16] = tested on: Canis familiaris; assay: Cmax in dog assessed as (S)-2-(2,6-difluorobenzamido)-3-(4-(1,3,6-trimethyl-2,4-dioxo-1,2,3,4-tetrahydropyrimidin-5-yl)phenyl)propanoic acid level at 50 mg/kg, po; assay type: ADME, organism-based, Canis lupus familiaris; set-up: dose 50 mg/kg, route oral; conditions: in vivo
[17] = tested on: Rattus norvegicus; assay: Cmax in rat assessed as (S)-2-(2,6-difluorobenzamido)-3-(4-(1,3,6-trimethyl-2,4-dioxo-1,2,3,4-tetrahydropyrimidin-5-yl)phenyl)propanoic acid level at 50 mg/kg, po; assay type: ADME, organism-based; set-up: dose 50 mg/kg, route oral; conditions: in vivo
[18] = tested on: Mus musculus; assay: Cmax in mouse assessed as (S)-2-(2,6-difluorobenzamido)-3-(4-(1,3,6-trimethyl-2,4-dioxo-1,2,3,4-tetrahydropyrimidin-5-yl)phenyl)propanoic acid level at 50 mg/kg, po; assay type: ADME, organism-based; set-up: dose 50 mg/kg, route oral; conditions: in vivo
[19] = tested on: Cynomolgus monkey; assay: Tmax in cynomolgus monkey assessed as (S)-2-(2,6-difluorobenzamido)-3-(4-(1,3,6-trimethyl-2,4-dioxo-1,2,3,4-tetrahydropyrimidin-5-yl)phenyl)propanoic acid level at 30 mg/kg, po; assay type: ADME, organism-based, Macaca fascicularis; set-up: dose 30 mg/kg, route oral; conditions: in vivo
[20] = tested on: Canis familiaris; assay: Tmax in dog assessed as (S)-2-(2,6-difluorobenzamido)-3-(4-(1,3,6-trimethyl-2,4-dioxo-1,2,3,4-tetrahydropyrimidin-5-yl)phenyl)propanoic acid level at 50 mg/kg, po; assay type: ADME, organism-based, Canis lupus familiaris; set-up: dose 50 mg/kg, route oral; conditions: in vivo
[21] = tested on: Rattus norvegicus; assay: Tmax in rat assessed as (S)-2-(2,6-difluorobenzamido)-3-(4-(1,3,6-trimethyl-2,4-dioxo-1,2,3,4-tetrahydropyrimidin-5-yl)phenyl)propanoic acid level at 50 mg/kg, po; assay type: ADME, organism-based; set-up: dose 50 mg/kg, route oral; conditions: in vivo
[22] = tested on: Mus musculus; assay: Tmax in mouse assessed as (S)-2-(2,6-difluorobenzamido)-3-(4-(1,3,6-trimethyl-2,4-dioxo-1,2,3,4-tetrahydropyrimidin-5-yl)phenyl)propanoic acid level at 50 mg/kg, po; assay type: ADME, organism-based; set-up: dose 50 mg/kg, route oral; conditions: in vivo

Papp [1]: 26.9 ×10⁻⁶ cm/s
bioavailability [2]: 9%
logD [3]: 1.73
F [7]: 7%
F [8]: 6%
F [9]: 9%
F [10]: 22%
AUC [11]: 3146 ng·h/mL
AUC [12]: 1690 ng·h/mL
AUC [13]: 18097 ng·h/mL
AUC [14]: 8547 ng·h/mL
Cmax [15]: 337 ng/mL
Cmax [16]: 471 ng/mL
Cmax [17]: 5287 ng/mL
Cmax [18]: 2988 ng/mL
Tmax [19]: 2 h
Tmax [20]: 1 h
Tmax [21]: 1.3 h
Tmax [22]: 0.25 h
Structure (SMILES): CCOC(=O)[C@H](Cc1ccc(-c2c(C)n(C)c(=O)n(C)c2=O)cc1)NC(=O)c1c(F)cccc1F
Activity [4]: Active
Activity [5]: Active
Activity [6]: Active
